Results published in patent publication US7220553B2, “Use of Russell's viper venom-induced plasma factor Xa activity to monitor the activity of factor Xa inhibitors” (Sanofi-Aventis Deutschland GmbH, priority 1999, dated 2007).

Key:
Assay type in all cases: biochemical
endogenous plasma FXa = target: T1, endogenous plasma FXa (Homo sapiens, UniProt P00742); assay: Russell's viper venom-induced clotting time (RVVT), RPR spiked in plasma
T1 construct: monitoring the effect of RPR on patient's endogenous plasma FXa; from tissue
Description: Dose-dependent clotting time prolongation curve from the compound methyl-3-(4′-N-oxopyridylphenoyl)-3-methyl-2-(m-amidinobenzyl)-propionate (hereinafter “RPR”) or the trifluoroacetate salt of RPR: • 1. Add 0.1 ml FXa buffer, 0.1 ml serial dilution of RPR, 0.1 ml normal pooled or patients plasma to the cuvette then 0.1 ml of RVV-Ca (MLA-800 dotter add this reagent automatically). • 2. Measure clotting time. • 3. Construct the dose-dependent clotting time prolongation curve. • 4. Calculate concentration for 2×RVVT
(§1) • 2. Follow the reaction kinetically for 5 min. • C) Calculation: Measure the initial velocity, however, ignore the lag phase. In general measure the initial rate of the linear portion of the time course. Use initial rates of clinical samples at different time points and then compared to the pre-dosing control to calculate % inhibition. Various concentrations of the compound RPR spiked in plasma were assayed for PT, APTT and PVVT prolongation. […] RVV-X induced clotting time (RVVT) assay could be conveniently used for monitoring the effect of RPR on patient's endogenous plasma FXa.

plasma [1] = assay: PT clotting time, RPR spiked in plasma
Description: as §1

plasma [2] = assay: APTT clotting time, RPR spiked in plasma
Description: as §1

T1 sequence (P00742 235-488 limits assumed): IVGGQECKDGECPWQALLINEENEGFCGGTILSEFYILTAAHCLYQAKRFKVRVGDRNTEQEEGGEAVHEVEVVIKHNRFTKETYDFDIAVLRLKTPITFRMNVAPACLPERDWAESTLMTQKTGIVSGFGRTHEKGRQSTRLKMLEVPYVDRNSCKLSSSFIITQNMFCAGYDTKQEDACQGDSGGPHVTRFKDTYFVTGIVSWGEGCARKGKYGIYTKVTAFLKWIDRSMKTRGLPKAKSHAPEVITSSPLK
T1 sequence (P00742 41-179 partner limits assumed): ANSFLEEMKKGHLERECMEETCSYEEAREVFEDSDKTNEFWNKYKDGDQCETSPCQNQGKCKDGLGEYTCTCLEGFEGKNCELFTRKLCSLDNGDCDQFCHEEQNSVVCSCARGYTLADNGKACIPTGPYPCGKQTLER

COC(=O)C(Cc1cccc(C(=N)N)c1)C(C)C(=O)c1ccc(-c2cc[n+]([O-])cc2)cc1 (stereo not drawn) [RPR, methyl-3-(4′-N-oxopyridylphenoyl)-3-methyl-2-(m-amidinobenzyl)-propionate]
fold-change of RVVT (endogenous plasma FXa; RPR 50 μg/ml spiked in plasma): 1.33 fold | fold-change of RVVT (endogenous plasma FXa; RPR 166 μg/ml spiked in plasma): 2.66 fold | fold-change of RVVT (endogenous plasma FXa; RPR 322 μg/ml spiked in plasma): 4.41 fold | fold-change of PT (plasma [1]; RPR 50 μg/ml spiked in plasma): 1.08 fold | fold-change of PT (plasma [1]; RPR 166 μg/ml spiked in plasma): 1.16 fold | fold-change of PT (plasma [1]; RPR 322 μg/ml spiked in plasma): 1.25 fold | fold-change of APTT (plasma [2]; RPR 50 μg/ml spiked in plasma): 1.08 fold | fold-change of APTT (plasma [2]; RPR 166 μg/ml spiked in plasma): 1.41 fold | fold-change of APTT (plasma [2]; RPR 322 μg/ml spiked in plasma): 1.5 fold
